Assay [1] deals with γ-H2AX in LNCaP AR.TB cells. As to conditions: 18 hours.
In assay [2] the test system is poly(ADP)ribose (PAR) formation in VCaP cells. The conditions noted are these: 0.01-100 μM, two hours. The procedure:
(§1) PAR inhibition using niraparib was assessed in 2 human prostate cancer cell lines, C4-2B and VCaP. The C4-2B cell line was grown in RPMI1640±GlutaMAX™-I medium supplemented with 10% FBS and NEAA and split every 3-4 days. VCaP cells were grown in DMEM+GlutaMAX™-I medium with FBS and NEAA and subcultured every 7 days.
(§2) Cells were harvested by brief trypsinization and each line was seeded into 6-well plates in 1 mL of medium at an appropriate density. An extra 500 μL of complete medium was added, for a total volume per well of 1.5 mL. Cells were rested overnight in the plates at 37° C. in a humidified 5% CO2 incubator. The next day, medium was removed from plates and cells were washed using 1 mL serum free medium (RPMI or DMEM respectively). Treatment was initiated by addition of 1 mL of niraparib (final concentrations 100, 10, 1, 0.1, 0.01 and 0 μM in 0.1% DMSO) in the appropriate medium to triplicate wells. Plates were returned to the incubator for two hours.
(§3) Following treatment, extracts were prepared using reagents and procedures provided in the HT PARP in vivo Pharmacodynamic Assay II (Trevigen #4520-096-K). Medium was removed from each well and placed into separate labeled microfuge tubes, and the plates were placed on ice. The tubes were spun at 1500 rpm for 4 minutes to pellet any cells that detached from the plate during drug incubation.
(§4) Samples were assayed in duplicate.

Assay [3] deals with poly(ADP)ribose (PAR) formation in C4-2B cells. As to conditions: 0.01-100 μM, two hours. On the procedure: as §1, §2, §3, §4
The test system of a further assay is γ-H2AX in 22RV1 cells. The conditions noted are these: 22RV1 (printed 22AV1), 18 hours.
In the next assay the test system is γ-H2AX in C4-2B cells. As to conditions: C4-2B (printed C4-28), 18 hours.
In assay [4] the test system is C4-2B human prostate tumors.
Experimental: This tumor model is not believed to be BRCA-1 or BRCA-2 deficient. Vehicle was 0.5% Methyl cellulose (MethocelTM [MUT]) prepared and kept at 4° C. in the dark. All formulations were made to be dosed at a volume of 10 ml/kg body weight. NSG male mice (Jackson Laboratories) were used. Animals were habituated for one week prior to any experimental procedures being performed. […] Mice were fed an autoclaved high fat (6%) diet laboratory chow and water ad libitum. Mice were injected with LNCaP C4-2B-luc tagged cells (1×10^6 tumors cells in a 200 μl volume of Cultrex®:RPMI 1640 medium (1:1 ratio) on the right flank. […] Mice were dosed daily by gavage (p.o.) with either vehicle, or vehicle containing niraparib as indicated below at 10 ml/kg dosing volume. Start of treatment=Day 1. Mice were treated through study day 24. […] For each individual animal, body weight and tumor volume [using the formula: Tumor Volume (mm3)=(a×b^2/2); where 'a' represents the length, and 'b' the width of the tumor as determined by caliper measurements], were monitored twice weekly throughout the study. For the pre-established tumors, a time-course of tumor growth is expressed as mean±standard error of the mean (SEM).
The subject of a further assay is C4-2B cells. The experiment in a line: cells. As to conditions: 7-day niraparib treatment. The procedure: (§5) In vitro cytotoxicity of niraparib was assessed in 5 human prostate cancer cell lines: C4-2B, LNCaP, LNCaP AR.TB, VCaP, and 22Rv1. C4-2B, LNCaP, LNCaP AR.TB, and 22Rv1 cell lines were grown in RPMI1640±GlutaMAX™-I medium (Life Technologies #61870-036) supplemented with 10% heat-inactivated fetal bovine serum (FBS) (Life Technologies 416140-071) and non-essential amino acids (NEAA) (Life Technologies #11140-050); and VCaP cells were grown in DMEM+GlutaMAX™-I medium (Life Technologies ##10569-010) with 10% FBS and NEAA. VCaP cells were subcultured every 7 days; other lines were split every 3-4 days. Cell growth kinetics of each cell line were determined by seeding cells at several densities and monitoring growth at intervals up to 7 days. Growth was determined using the Promega Cell TiterGlo reagent (#G7571) to measure cellular ATP by means of a chemiluminescent luciferin-luciferase reaction. […] For niraparib cytotoxicity experiments, cells were harvested by brief trypsinization and each line was seeded to the inner 60 wells of 96-well plates in 100 μL of medium at an appropriate density for a 7-day treatment. The outer wells of each plate were filled with Dulbecco's phosphate buffered saline (DPBS; Life Technologies #14190-144) to reduce evaporation from test wells. Cells were rested overnight in the plates at 37° C. in a humidified 5% CO2 incubator. […] The final vehicle concentration was 0.5% DMSO. Cells were cultured for 7 days. Relative cell viability after treatment was determined using Cell TiterGlo reagent, as above. All luminescent output values were normalized to percent inhibition based on mean luminescence of the untreated control wells, and the mean percent inhibition of the vehicle control wells was subtracted from each treatment value. Percent inhibition was plotted vs log μM concentration in GraphPad Prism 7.00. Nonlinear regression and calculation of EC50 values were performed using the log(agonist) vs. response—Variable slope (four parameters) fit.

The next assay deals with LNCaP cells. Briefly: cells. As to conditions: Homo sapiens, 168 h. The procedure:
as §5

The subject of the next assay is LNCaP AR.TB cells. The experiment in a line: cells. The conditions noted are these: Homo sapiens, 168 h. The procedure: as §5
Another assay deals with 22Rv1 cells. The experiment in a line: cells. As to conditions: Homo sapiens, 22Rv1, 168 h. The procedure:
as §5

In the next assay the test system is VCaP cells. Briefly: cells. The conditions noted are these: 7-day niraparib treatment. On the procedure:
as §5

Structures are written as SMILES. Read-outs that look alike come from different tables or passages of the source.

With `NC(=O)c1cccc2cn(-c3ccc([C@@H]4CCCNC4)cc3)nc12` [niraparib, 2-[4-[(3S)-piperidin-3-yl]phenyl]indazole-7-carboxamide], the “1st Significant Concentration (minimum concentration that induces significant change in γ-H2AX)” value came out at 3.13 µM in assay [1], 1.57 µM with γ-H2AX in 22RV1 cells and 1.57 µM in the assay with γ-H2AX in C4-2B cells. Further, the “PAR (pg PAR/mg of protein)” value in assay [2] and in assay [3] was “reduced in a dose-dependent fashion” in each case. Also, the “tumor growth inhibition (TGI)” value in assay [4] (25 mg/kg QD p.o., days 22 and 24, not significant) is roughly 12%; in assay [4] (50 mg/kg QD p.o., days 18, 22 and 24, significant), roughly 40%. Further, the EC50 – broadly, the concentration that produces a half-maximal response – with C4-2B cells is 1.22 µM; in the assay on C4-2B cells (Homo sapiens, 168 h), roughly 1.2 µM; in the assay on LNCaP cells it was 3.5 µM; in the assay with LNCaP AR.TB cells it was 2.14 µM; in the assay on 22Rv1 cells it was 3.52 µM; with VCaP cells, 4.1 µM. In the assay on VCaP cells (Homo sapiens, 168 h), this molecule showed an EC50 of 4.1 µM.

Source of the values: patent publication US11986470B2, “Methods of treating prostate cancer” (Janssen Pharmaceutica NV, priority 2016, dated 2024).
